Each compound was assayed on OGD-injuried neurons (primary cortical neurons) (assay: Cell viability assay: LDH release by OGD-injured primary cortical neurons). Conditions: Mus musculus, Primary cortical neuron; drug concentration 10^−6 M/L; OGD 2 hours, LDH after 8 hours.
Assay type: cell-based, mice
Procedure: After primary neurons were cultured for 9 days, the medium was replaced by DMEM high glucose medium containing 1% FBS, serum-starved overnight and then washed twice with OGD culture solution. This OGD culture solution contains DMEM medium, 1% FBS, 1% penicillin/streptomycin and B27, and contains no sugar. Then, the primary neurons were incubated with the test drugs for 30 minutes, OGD culture solution was added into an anaerobic tank and oxygen-deprived for 2 hours. The OGD culture solution was discarded, and replaced by oxygen-saturated DMEM medium containing 1% FBS, 1% penicillin/streptomycin and B27. After 8 hours the culture solution was collected to measure LDH level.
After the primary cortical neurons were treated with various processes, neuronal culture solution in six-well plates was pipetted to a 1.5 mL plastic centrifuge tube; cells were washed three times with PBS solution and each well was added PBS 1000 μl. The cells were freezed and thawed repeated for three times, centrifuged at 12000′ g for 5 minutes at 4° C., and the supernatant was removed for use. The activity of LDH enzyme was determined with 50 μl culture solution and 25 μl supernatant using lactate dehydrogenase kit.
Protective Effects of the Objective Compounds Against Primary Cortical Neuronal Injury Cultured In Vitro (See Table 2)
`COc1cc(NCc2cc(C(F)(F)F)cc(Cl)c2O)ccc1C(=O)OC1CC2CCC1(C)C2(C)C` (stereo not drawn) [ZL006-49, bornyl-2-methoxy-4-(2-hydroxy-3-chloro-5-trifluoromethylbenzyl)aminobenzoate] showed an inhibition at 1 µM of 32.6%. In the case of `CCCC(=O)Oc1cc(NCc2cc(C(F)(F)F)cc(Cl)c2O)ccc1C(=O)OC1CC2CCC1(C)C2(C)C` (stereo not drawn) [ZL006-52, bornyl-2-butyryloxy-4-(2-hydroxy-3-chloro-5-trifluoromethylbenzyl)aminobenzoate], the inhibition at 1 µM is reported as 40.5%. `CCCCOc1cc(NCc2cc(C(F)(F)F)cc(Cl)c2O)ccc1C(=O)OC1CC2CCC1(C)C2(C)C` (stereo not drawn) [ZL006-50, bornyl-2-n-butoxy-4-(2-hydroxy-3-chloro-5-trifluoromethylbenzyl)aminobenzoate] was tested, and the inhibition at 1 µM was 40.2%. Compound `CCCC(=O)Oc1cc(NCc2cc(Br)cc(Cl)c2O)ccc1C(=O)OC1CC2CCC1(C)C2(C)C` (stereo not drawn) [ZL006-44, bornyl-2-butyryloxy-4-(2-hydroxy-3-chloro-5-bromobenzyl)aminobenzoate] has an inhibition at 1 µM of 43.5%. `CC1(C)C2CCC1(C)C(OC(=O)c1ccc(NCc3cc(C(F)(F)F)cc(Cl)c3O)cc1O)C2` (stereo not drawn) [ZL006-47, bornyl-2-hydroxy-4-(2-hydroxy-3-chloro-5-trifluoromethylbenzyl)aminobenzoate] was tested, and the inhibition at 1 µM was 84.2%. Compound `COc1c(C(=O)OC2CC3CCC2(C)C3(C)C)ccc(NCc2cc(Cl)cc(Cl)c2O)c1Cl` (stereo not drawn) [ZL006-26, bornyl-2-methoxy-3-chloro-4-(2-hydroxy-3,5-dichlorobenzyl)aminobenzoate] has an inhibition at 1 µM of 35.4%. For `CC(=O)Oc1cc(NCc2cc(C(F)(F)F)cc(Cl)c2O)ccc1C(=O)OC1CC2CCC1(C)C2(C)C` (stereo not drawn) [ZL006-51, bornyl-2-acetyloxy-4-(2-hydroxy-3-chloro-5-trifluoromethylbenzyl)aminobenzoate], the inhibition at 1 µM was 66.3%. Compound `CCCC(=O)Oc1cc(NCc2cc(F)cc(Cl)c2O)ccc1C(=O)OC1CC2CCC1(C)C2(C)C` (stereo not drawn) [ZL006-60, bornyl-2-butyryloxy-4-(2-hydroxy-3-chloro-5-fluorobenzyl)aminobenzoate] has an inhibition at 1 µM of 68.4%.

Same assay, conditions: drug concentration 10^−6 M/L; OGD 2 hours, LDH after 8 hours
In the case of `CC(=O)Oc1cc(NCc2cc(F)cc(Cl)c2O)ccc1C(=O)OC1CC2CCC1(C)C2(C)C` (stereo not drawn) [ZL006-59, bornyl-2-acetyloxy-4-(2-hydroxy-3-chloro-5-fluorobenzyl) aminobenzoate], the “Inhibition of LDH release (%)” value is reported as 61.7%. `CC1(C)C2CCC1(C)C(OC(=O)c1ccc(NCc3cc(F)ccc3O)cc1O)C2` (stereo not drawn) [ZL006-69, bornyl-2-hydroxy-4-(2-hydroxy-5-fluorobenzyl) aminobenzoate] was tested, and the “Inhibition of LDH release (%)” value was 17.3%. With `COc1cc(N(C)Cc2cc(Cl)cc(Cl)c2O)ccc1C(=O)OC1CC2CCC1(C)C2(C)C` (stereo not drawn) [ZL006-29, bornyl-2-methoxy-4-[N-(2-hydroxy-3,5-dichlorobenzyl)-N-methyl]aminobenzoate] the “Inhibition of LDH release (%)” value was 41.7%. With `CC(=O)Oc1cc(NCc2cc(F)cc(Cl)c2O)ccc1C(=O)OC1CC2CCC1(C)C2(C)C` (stereo not drawn) [ZL006-07, bornyl-2-acetyloxy-4-(2-hydroxy-3-chloro-5-fluorobenzyl) aminobenzoate] the “Inhibition of LDH release (%)” value was 20.7%. `CCCCCC(=O)Oc1cc(NCc2cc(Cl)cc(Cl)c2O)ccc1C(=O)OC1CC2CCC1(C)C2(C)C` (stereo not drawn) [ZL006-24, bornyl-2-hexanoyloxy-4-(2-hydroxy-3,5-dichlorobenzyl) aminobenzoate] was tested, and the “Inhibition of LDH release (%)” value was 31.2%. With `CN(Cc1cc(C(F)(F)F)cc(Cl)c1O)c1ccc(C(=O)OC2CC3CCC2(C)C3(C)C)c(O)c1` (stereo not drawn) [ZL006-53, bornyl-2-hydroxy-4-[N-(2-hydroxy-3-chloro-5-trifluoromethylbenzyl)-N-methyl]aminobenzoate] the “Inhibition of LDH release (%)” value was 61.1%. In the case of `COc1cc(NCc2cc(Cl)cc(Cl)c2O)ccc1C(=O)OC1CC2CCC1(C)C2(C)C` (stereo not drawn) [ZL006-20, bornyl-2-methoxy-4-(2-hydroxy-3,5-dichlorobenzyl) aminobenzoate], the “Inhibition of LDH release (%)” value is reported as 11.1%. `CC(=O)Oc1cc(NCc2cc(Cl)ccc2O)ccc1C(=O)OC1CC2CCC1(C)C2(C)C` (stereo not drawn) [ZL006-68, bornyl-2-acetyloxy-4-(2-hydroxy-5-chlorobenzyl) aminobenzoate] was tested, and the “Inhibition of LDH release (%)” value was 1.2%. For `CC1(C)C2CCC1(C)C(OC(=O)c1ccc(NCc3cc(C(F)(F)F)ccc3O)cc1O)C2` (stereo not drawn) [ZL006-72, bornyl-2-hydroxy-4-(2-hydroxy-5-trifluoromethylbenzyl) aminobenzoate], the “Inhibition of LDH release (%)” value was 21.6%. `CC1(C)C2CCC1(C)C(OC(=O)c1ccc(NCc3cc(F)cc(Cl)c3O)cc1O)C2` (stereo not drawn) [ZL006-55, bornyl-2-hydroxy-4-(2-hydroxy-3-chloro-5-fluorobenzyl) aminobenzoate] was tested, and the “Inhibition of LDH release (%)” value was 36.3%. In the case of `CN(Cc1cc(Cl)cc(Cl)c1O)c1ccc(C(=O)O)c(O)c1` [ZL006-09, 2-hydroxy-4-[N-(2-hydroxy-3,5-dichlorobenzyl)-N-methyl]aminobenzoic acid], the “Inhibition of LDH release (%)” value is reported as 29.5%. With `COC(=O)c1cc(N(C)Cc2cc(F)cc(Cl)c2O)ccc1O` [ZL006-11, methyl 2-hydroxy-5-[N-(2-hydroxy-3-chloro-5-fluorobenzyl)-N-methyl]aminobenzoate] the “Inhibition of LDH release (%)” value was 41.1%. In the case of `CC(=O)N(Cc1cc(F)cc(Cl)c1O)c1ccc(C(=O)OC2CC3CCC2(C)C3(C)C)c(O)c1` (stereo not drawn) [ZL006-62, bornyl-2-hydroxy-4-[N-(2-hydroxy-3-chloro-5-fluorobenzyl)-N-acetyl]aminobenzoate], the “Inhibition of LDH release (%)” value is reported as 50.1%. With `CC1(C)C2CCC1(C)C(OC(=O)c1cc(NCc3cc(Br)ccc3O)ccc1O)C2` (stereo not drawn) [ZL006-04, bornyl-2-hydroxy-5-(2-hydroxy-5-bromobenzyl) aminobenzoate] the “Inhibition of LDH release (%)” value was 26.9%. In the case of `CC(=O)N(Cc1cc(Br)cc(Cl)c1O)c1ccc(C(=O)OC2CC3CCC2(C)C3(C)C)c(O)c1` (stereo not drawn) [ZL006-46, bornyl-2-hydroxy-4-[N-(2-hydroxy-3-chloro-5-bromobenzyl)-N-acetyl]aminobenzoate], the “Inhibition of LDH release (%)” value is reported as 72.5%. `CC1(C)C2CCC1(C)C(OC(=O)c1ccc(NCc3cc(Cl)ccc3O)cc1O)C2` (stereo not drawn) [ZL006-66, bornyl-2-hydroxy-4-(2-hydroxy-5-chlorobenzyl) aminobenzoate] was tested, and the “Inhibition of LDH release (%)” value was 13.3%. `CC1(C)C2CCC1(C)C(OC(=O)c1cc(NCc3cc(Cl)ccc3O)ccc1O)C2` (stereo not drawn) [ZL006-03, bornyl-2-hydroxy-5-(2-hydroxy-5-chlorobenzyl) aminobenzoate] was tested, and the “Inhibition of LDH release (%)” value was 17.8%. `CC(=O)Oc1cc(N(Cc2cc(Cl)cc(Cl)c2O)C(C)=O)ccc1C(=O)OC1CC2CCC1(C)C2(C)C` (stereo not drawn) [ZL006-31, bornyl-2-acetyloxy-4-[N-(2-hydroxy-3,5-dichlorobenzyl)-N-acetyl]aminobenzoate] was tested, and the “Inhibition of LDH release (%)” value was 77.3%. In the case of `CN(Cc1cc(Br)cc(Cl)c1O)c1ccc(C(=O)OC2CC3CCC2(C)C3(C)C)c(O)c1` (stereo not drawn) [ZL006-45, bornyl-2-hydroxy-4-[N-(2-hydroxy-3-chloro-5-bromobenzyl)-N-methyl]aminobenzoate], the “Inhibition of LDH release (%)” value is reported as 67.2%. `CC(=O)Oc1cc(N(Cc2cc(Cl)cc(Cl)c2O)C(C)=O)ccc1C(=O)O` [ZL006-10, 2-acetyloxy-4-[N-(2-hydroxy-3,5-dichlorobenzyl)-N-acetyl]aminobenzoic acid] was tested, and the “Inhibition of LDH release (%)” value was 42.3%. `CCCC(=O)Oc1cc(NCc2cc(Cl)cc(Cl)c2O)ccc1C(=O)OC1CC2CCC1(C)C2(C)C` (stereo not drawn) [ZL006-23, bornyl-2-butyryloxy-4-(2-hydroxy-3,5-dichlorobenzyl) aminobenzoate] was tested, and the “Inhibition of LDH release (%)” value was 18.7%. With “methyl 2-(bornyl-2-carbonylethoxy)-4-[N-(2-hydroxy-3,5-dichlorobenzyl)-N-acetyl]aminobenzoate [ZL006-35]” the “Inhibition of LDH release (%)” value was 12.8%. With `CC1(C)C2CCC1(C)C(OC(=O)c1ccc(NCc3cc(F)cc(Cl)c3O)cc1O)C2` (stereo not drawn) [ZL006-08, bornyl-2-hydroxy-4-(2-hydroxy-3-chloro-5-fluorobenzyl) aminobenzoate] the “Inhibition of LDH release (%)” value was 50.4%. With `CC1(C)C2CCC1(C)C(OC(=O)c1ccc(NCc3cc(Br)cc(Cl)c3O)cc1O)C2` (stereo not drawn) [ZL006-39, bornyl-2-hydroxy-4-(2-hydroxy-3-chloro-5-bromobenzyl) aminobenzoate] the “Inhibition of LDH release (%)” value was 81.2%. With “bornyl-2-(bornyl-2-carbonylethoxy)-4-[N-(2-hydroxy-3,5-dichlorobenzyl)-N-(bornyl-2-carbonylethyl)]aminobenzoate [ZL006-37]” the “Inhibition of LDH release (%)” value was 40.2%. “bornyl-2-(2-ethoxy-2-carbonylethoxy)-4-[N-(2-hydroxy-3,5-dichlorobenzyl)-N-(2-ethoxy-2-carbonylethyl)]aminobenzoate [ZL006-36]” was tested, and the “Inhibition of LDH release (%)” value was 10.4%. In the case of `CC(=O)Oc1cc(NCc2cc(F)ccc2O)ccc1C(=O)OC1CC2CCC1(C)C2(C)C` (stereo not drawn) [ZL006-71, bornyl-2-acetyloxy-4-(2-hydroxy-5-fluorobenzyl) aminobenzoate], the “Inhibition of LDH release (%)” value is reported as 7.8%. `CCCCCCOc1cc(NCc2cc(Cl)cc(Cl)c2O)ccc1C(=O)OC1CC2CCC1(C)C2(C)C` (stereo not drawn) [ZL006-22, bornyl-2-n-hexyloxy-4-(2-hydroxy-3,5-dichlorobenzyl) aminobenzoate] was tested, and the “Inhibition of LDH release (%)” value was 2.5%.
